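Values below derive from 48-hour exposures of cells grown in 96-well plates, with endpoints linearly interpolated between the two concentrations bracketing the appropriate inhibition level. At the TGI there is no net growth.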
Tests used:
Experiment in all cases: NCI anticancer screen, dose series, 48 h
786-0 renal = tested on: 786-0 renal
A498 renal = tested on: A498 renal
A549 NSCLC = tested on: A549 NSCLC
ACHN renal = tested on: ACHN renal
CAKI-1 renal = tested on: CAKI-1 renal
CCRF-CEM leukemia = tested on: CCRF-CEM leukemia
COLO 205 colon = tested on: COLO 205 colon
DLD-1 colon = tested on: DLD-1 colon
DMS 114 small cell lung = tested on: DMS 114 small cell lung
DMS 273 small cell lung = tested on: DMS 273 small cell lung
EKVX NSCLC = tested on: EKVX NSCLC
HCT-116 colon = tested on: HCT-116 colon
HL-60(TB) leukemia = tested on: HL-60(TB) leukemia
HOP-18 NSCLC = tested on: HOP-18 NSCLC
HOP-62 NSCLC = tested on: HOP-62 NSCLC
HOP-92 NSCLC = tested on: HOP-92 NSCLC
HT29 colon = tested on: HT29 colon
IGROV1 ovarian = tested on: IGROV1 ovarian
K-562 leukemia = tested on: K-562 leukemia
KM12 colon = tested on: KM12 colon
KM20L2 colon = tested on: KM20L2 colon
LXFL 529 NSCLC = tested on: LXFL 529 NSCLC
M14 melanoma = tested on: M14 melanoma
M19-MEL melanoma = tested on: M19-MEL melanoma
MALME-3M melanoma = tested on: MALME-3M melanoma
MOLT-4 leukemia = tested on: MOLT-4 leukemia
NCI-H226 lung = tested on: NCI-H226 lung
NCI-H23 lung = tested on: NCI-H23 lung
NCI-H460 lung = tested on: NCI-H460 lung
NCI-H522 lung = tested on: NCI-H522 lung
OVCAR-3 ovarian = tested on: OVCAR-3 ovarian
OVCAR-4 ovarian = tested on: OVCAR-4 ovarian
OVCAR-5 ovarian = tested on: OVCAR-5 ovarian
OVCAR-8 ovarian = tested on: OVCAR-8 ovarian
RXF 393 renal = tested on: RXF 393 renal
RXF-631 renal = tested on: RXF-631 renal
SF-268 CNS = tested on: SF-268 CNS
SF-295 CNS = tested on: SF-295 CNS
SF-539 CNS = tested on: SF-539 CNS
SK-MEL-2 melanoma = tested on: SK-MEL-2 melanoma
SK-MEL-28 melanoma = tested on: SK-MEL-28 melanoma
SK-MEL-5 melanoma = tested on: SK-MEL-5 melanoma
SK-OV-3 ovarian = tested on: SK-OV-3 ovarian
SN12C renal = tested on: SN12C renal
SNB-19 CNS = tested on: SNB-19 CNS
SNB-75 CNS = tested on: SNB-75 CNS
SNB-78 CNS = tested on: SNB-78 CNS
SR leukemia = tested on: SR leukemia
SW-620 colon = tested on: SW-620 colon
U251 CNS = tested on: U251 CNS
UACC-257 melanoma = tested on: UACC-257 melanoma
UO-31 renal = tested on: UO-31 renal
HCC-2998 colon = tested on: HCC-2998 colon
RPMI-8226 leukemia = tested on: RPMI-8226 leukemia
UACC-62 melanoma = tested on: UACC-62 melanoma
XF 498 CNS = tested on: XF 498 CNS

Measured: TGI

CCOc1ccc2c(c1)[n+]([O-])c(-c1ccc([N+](=O)[O-])cc1)c(N)[n+]2[O-]
not listed: HCC-2998 colon | RPMI-8226 leukemia | UACC-62 melanoma | XF 498 CNS
> 100 µM: all other assays above

CCOC(=O)C1=C(Nc2cccc3ccccc23)OCC1=O
not listed: DMS 114 small cell lung | HL-60(TB) leukemia | HOP-18 NSCLC | M19-MEL melanoma | RXF 393 renal | SF-295 CNS
> 100 µM: all other assays above

Source: PubChem BioAssay (NCI)
